Experimental data as given in patent publication US10597387B2, “Methods to treat lymphoplasmacytic lymphoma” (Dana-Farber Cancer Institute, Inc., priority 2013, dated 2020).
Like-named read-outs stand apart in the source and are kept apart here.

What was measured:
Assay in all cases: KiNativ kinase profiling
[1] = biological target: GSK3B (Homo sapiens (Human), UniProt P49841); assay type: binding; details: Lys2, A375 cells, read-out: inhibition of kinase labeling
[2] = biological target: KHS1 (Homo sapiens (Human), UniProt Q9Y4K4); assay type: binding; details: Lys1, A375 cells, read-out: inhibition of kinase labeling
[3] = test system: JNK1, JNK2, JNK3; assay type: binding, Homo sapiens; details: Lys2, 1 μM, A375 cells
[4] = biological target: SLK (Homo sapiens (Human), UniProt Q9H2G2); assay type: binding; details: Lys2, A375 cells, read-out: inhibition of kinase labeling
[5] = biological target: DNAPK (Homo sapiens (Human), UniProt P78527); assay type: binding; details: ATP, A375 cells, read-out: inhibition of kinase labeling
[6] = biological target: FER (Homo sapiens (Human), UniProt P16591); assay type: binding; details: Lys1, A375 cells, read-out: inhibition of kinase labeling
[7] = biological target: PKD3 (Homo sapiens (Human), UniProt O94806); assay type: binding; details: Lys2, A375 cells, read-out: inhibition of kinase labeling
[8] = test system: PKD1, PKD2; assay type: binding, Homo sapiens; details: Lys2, 1 μM, A375 cells
[9] = biological target: CK1g2 (Homo sapiens (Human), UniProt P78368); assay type: binding; details: Lys2, A375 cells, read-out: inhibition of kinase labeling
[10] = biological target: MAP3K1 (Homo sapiens (Human), UniProt Q13233); assay type: binding; details: Lys2, A375 cells, read-out: inhibition of kinase labeling
[11] = test system: CaMK2a, CaMK2b, CaMK2d, CaMK2g; assay type: binding, Homo sapiens; details: Lys2, 1 μM, A375 cells
[12] = test system: MARK1, MARK2; assay type: binding, Homo sapiens; details: Lys1, 1 μM, A375 cells
[13] = biological target: MAP2K6 (Homo sapiens (Human), UniProt P52564); assay type: binding; details: Lys2, A375 cells, read-out: inhibition of kinase labeling
[14] = biological target: SYK (Homo sapiens (Human), UniProt P43405); assay type: binding; details: read-out: inhibition of kinase labeling
[15] = biological target: MAP2K4 (Homo sapiens (Human), UniProt P45985); assay type: binding; details: Lys2, A375 cells, read-out: inhibition of kinase labeling
[16] = biological target: IKKe (Homo sapiens (Human), UniProt Q14164); assay type: binding; details: Lys1, A375 cells, read-out: inhibition of kinase labeling
[17] = biological target: CSK (Homo sapiens (Human), UniProt P41240); assay type: binding; details: Activation Loop, A375 cells, read-out: inhibition of kinase labeling
[18] = biological target: BLK (Homo sapiens (Human), UniProt P51451); assay type: binding; details: Activation Loop, A375 cells, read-out: inhibition of kinase labeling
[19] = biological target: TLK2 (Homo sapiens (Human), UniProt Q86UE8); assay type: binding; details: Lys2, A375 cells, read-out: inhibition of kinase labeling
[20] = biological target: CHK2 (Homo sapiens (Human), UniProt O96017); assay type: binding; details: Lys1, A375 cells, read-out: inhibition of kinase labeling
[21] = biological target: IRAK4 (Homo sapiens (Human), UniProt Q9NWZ3); assay type: binding; details: Lys2, A375 cells, read-out: inhibition of kinase labeling
[22] = biological target: RSK2 domain2 (Homo sapiens (Human), UniProt P51812); assay type: binding; details: Lys2, A375 cells, read-out: inhibition of kinase labeling
[23] = biological target: NDR2 (Homo sapiens (Human), UniProt Q9Y2H1); assay type: binding; details: Lys2, A375 cells, read-out: inhibition of kinase labeling
[24] = test system: p38d, p38g; assay type: binding, Homo sapiens; details: Lys2, 1 μM, A375 cells
[25] = biological target: MAP3K4 (Homo sapiens (Human), UniProt Q9Y6R4); assay type: binding; details: Lys2, A375 cells, read-out: inhibition of kinase labeling
[26] = test system: ABL, ARG; assay type: binding, Homo sapiens; details: Activation Loop, 1 μM, A375 cells
[27] = biological target: MAP2K1 (Homo sapiens (Human), UniProt Q02750); assay type: binding; details: Lys2, A375 cells, read-out: inhibition of kinase labeling
[28] = biological target: PYK2 (Homo sapiens (Human), UniProt Q14289); assay type: binding; details: Activation Loop, A375 cells, read-out: inhibition of kinase labeling
[29] = biological target: TLK1 (Homo sapiens (Human), UniProt Q9UKI8); assay type: binding; details: Lys2, A375 cells, read-out: inhibition of kinase labeling
[30] = biological target: PKR (Homo sapiens (Human), UniProt P19525); assay type: binding; details: Lys2, A375 cells, read-out: inhibition of kinase labeling
[31] = biological target: BARK1 (Homo sapiens (Human), UniProt P25098); assay type: binding; details: Lys2, A375 cells, read-out: inhibition of kinase labeling
[32] = biological target: BRAF (Homo sapiens (Human), UniProt P15056, V600E); assay type: binding; details: Lys2, A375 cells, read-out: inhibition of kinase labeling
[33] = biological target: GCK (Homo sapiens (Human), UniProt Q12851); assay type: binding; details: Lys2, A375 cells, read-out: inhibition of kinase labeling
[34] = biological target: PIK3CD (Homo sapiens (Human), UniProt O00329); assay type: binding; details: ATP, A375 cells, read-out: inhibition of kinase labeling
[35] = biological target: MST2 (Homo sapiens (Human), UniProt Q13188); assay type: binding; details: Lys1, A375 cells, read-out: inhibition of kinase labeling
[36] = biological target: LYN (Homo sapiens (Human), UniProt P07948); assay type: binding; details: read-out: inhibition of kinase labeling
[37] = test system: TAO1, TAO3; assay type: binding, Homo sapiens; details: Lys2, 1 μM, A375 cells
[38] = biological target: MAST3 (Homo sapiens (Human), UniProt O60307); assay type: binding; details: Lys2, A375 cells, read-out: inhibition of kinase labeling
[39] = biological target: RSK1 domain2 (Homo sapiens (Human), UniProt Q15418); assay type: binding; details: Lys2, A375 cells, read-out: inhibition of kinase labeling
[40] = biological target: ACK (Homo sapiens (Human), UniProt Q07912); assay type: binding; details: Lys1, A375 cells, read-out: inhibition of kinase labeling
[41] = biological target: CaMK4 (Homo sapiens (Human), UniProt Q16566); assay type: binding; details: Lys2, A375 cells, read-out: inhibition of kinase labeling

Chain of LYN (P07948 whole entry): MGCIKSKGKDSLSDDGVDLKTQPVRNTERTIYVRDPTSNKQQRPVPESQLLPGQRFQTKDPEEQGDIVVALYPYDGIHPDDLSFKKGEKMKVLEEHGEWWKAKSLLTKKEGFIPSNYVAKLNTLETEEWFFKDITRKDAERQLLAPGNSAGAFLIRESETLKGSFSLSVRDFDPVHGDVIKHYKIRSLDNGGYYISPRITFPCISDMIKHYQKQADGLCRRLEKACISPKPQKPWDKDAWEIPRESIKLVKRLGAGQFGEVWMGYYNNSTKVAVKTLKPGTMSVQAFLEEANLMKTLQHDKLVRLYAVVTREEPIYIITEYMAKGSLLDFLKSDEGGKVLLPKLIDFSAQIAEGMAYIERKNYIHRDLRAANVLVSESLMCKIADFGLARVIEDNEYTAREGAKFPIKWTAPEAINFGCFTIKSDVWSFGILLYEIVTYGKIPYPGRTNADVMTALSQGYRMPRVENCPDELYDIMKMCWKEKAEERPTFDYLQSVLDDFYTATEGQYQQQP
Chain of SLK (Q9H2G2 whole entry): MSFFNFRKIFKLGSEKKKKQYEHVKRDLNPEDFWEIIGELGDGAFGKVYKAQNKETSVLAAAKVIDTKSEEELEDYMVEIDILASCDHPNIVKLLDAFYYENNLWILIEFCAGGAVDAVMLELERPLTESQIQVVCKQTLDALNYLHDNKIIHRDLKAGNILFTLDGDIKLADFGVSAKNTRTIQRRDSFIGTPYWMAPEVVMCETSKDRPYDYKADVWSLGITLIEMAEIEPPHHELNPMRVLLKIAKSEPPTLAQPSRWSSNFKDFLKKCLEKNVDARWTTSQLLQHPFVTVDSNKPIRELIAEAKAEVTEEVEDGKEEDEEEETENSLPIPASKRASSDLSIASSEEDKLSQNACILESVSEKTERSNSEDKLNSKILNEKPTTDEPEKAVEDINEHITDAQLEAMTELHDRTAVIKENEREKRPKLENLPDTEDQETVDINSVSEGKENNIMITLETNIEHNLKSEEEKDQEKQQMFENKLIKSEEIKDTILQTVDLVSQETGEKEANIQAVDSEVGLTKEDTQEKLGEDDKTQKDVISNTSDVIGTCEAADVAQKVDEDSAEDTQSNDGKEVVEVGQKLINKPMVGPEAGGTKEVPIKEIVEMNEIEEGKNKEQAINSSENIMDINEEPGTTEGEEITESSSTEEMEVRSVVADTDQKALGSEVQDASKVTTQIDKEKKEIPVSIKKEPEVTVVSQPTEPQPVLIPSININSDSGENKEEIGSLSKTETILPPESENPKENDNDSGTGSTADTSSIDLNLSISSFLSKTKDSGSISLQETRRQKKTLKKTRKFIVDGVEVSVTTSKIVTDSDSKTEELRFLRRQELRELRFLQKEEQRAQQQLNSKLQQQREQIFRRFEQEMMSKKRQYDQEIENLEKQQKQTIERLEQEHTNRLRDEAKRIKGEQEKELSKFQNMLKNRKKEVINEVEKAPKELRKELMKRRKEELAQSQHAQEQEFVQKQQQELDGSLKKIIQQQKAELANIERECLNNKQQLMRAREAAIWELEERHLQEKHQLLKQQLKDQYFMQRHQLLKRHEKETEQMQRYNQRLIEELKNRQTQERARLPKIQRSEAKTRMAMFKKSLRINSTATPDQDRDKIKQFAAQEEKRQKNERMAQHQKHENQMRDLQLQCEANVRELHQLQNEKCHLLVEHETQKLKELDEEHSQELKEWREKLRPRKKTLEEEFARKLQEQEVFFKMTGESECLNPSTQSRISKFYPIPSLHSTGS
Chain of MAP3K4 (Q9Y6R4 whole entry): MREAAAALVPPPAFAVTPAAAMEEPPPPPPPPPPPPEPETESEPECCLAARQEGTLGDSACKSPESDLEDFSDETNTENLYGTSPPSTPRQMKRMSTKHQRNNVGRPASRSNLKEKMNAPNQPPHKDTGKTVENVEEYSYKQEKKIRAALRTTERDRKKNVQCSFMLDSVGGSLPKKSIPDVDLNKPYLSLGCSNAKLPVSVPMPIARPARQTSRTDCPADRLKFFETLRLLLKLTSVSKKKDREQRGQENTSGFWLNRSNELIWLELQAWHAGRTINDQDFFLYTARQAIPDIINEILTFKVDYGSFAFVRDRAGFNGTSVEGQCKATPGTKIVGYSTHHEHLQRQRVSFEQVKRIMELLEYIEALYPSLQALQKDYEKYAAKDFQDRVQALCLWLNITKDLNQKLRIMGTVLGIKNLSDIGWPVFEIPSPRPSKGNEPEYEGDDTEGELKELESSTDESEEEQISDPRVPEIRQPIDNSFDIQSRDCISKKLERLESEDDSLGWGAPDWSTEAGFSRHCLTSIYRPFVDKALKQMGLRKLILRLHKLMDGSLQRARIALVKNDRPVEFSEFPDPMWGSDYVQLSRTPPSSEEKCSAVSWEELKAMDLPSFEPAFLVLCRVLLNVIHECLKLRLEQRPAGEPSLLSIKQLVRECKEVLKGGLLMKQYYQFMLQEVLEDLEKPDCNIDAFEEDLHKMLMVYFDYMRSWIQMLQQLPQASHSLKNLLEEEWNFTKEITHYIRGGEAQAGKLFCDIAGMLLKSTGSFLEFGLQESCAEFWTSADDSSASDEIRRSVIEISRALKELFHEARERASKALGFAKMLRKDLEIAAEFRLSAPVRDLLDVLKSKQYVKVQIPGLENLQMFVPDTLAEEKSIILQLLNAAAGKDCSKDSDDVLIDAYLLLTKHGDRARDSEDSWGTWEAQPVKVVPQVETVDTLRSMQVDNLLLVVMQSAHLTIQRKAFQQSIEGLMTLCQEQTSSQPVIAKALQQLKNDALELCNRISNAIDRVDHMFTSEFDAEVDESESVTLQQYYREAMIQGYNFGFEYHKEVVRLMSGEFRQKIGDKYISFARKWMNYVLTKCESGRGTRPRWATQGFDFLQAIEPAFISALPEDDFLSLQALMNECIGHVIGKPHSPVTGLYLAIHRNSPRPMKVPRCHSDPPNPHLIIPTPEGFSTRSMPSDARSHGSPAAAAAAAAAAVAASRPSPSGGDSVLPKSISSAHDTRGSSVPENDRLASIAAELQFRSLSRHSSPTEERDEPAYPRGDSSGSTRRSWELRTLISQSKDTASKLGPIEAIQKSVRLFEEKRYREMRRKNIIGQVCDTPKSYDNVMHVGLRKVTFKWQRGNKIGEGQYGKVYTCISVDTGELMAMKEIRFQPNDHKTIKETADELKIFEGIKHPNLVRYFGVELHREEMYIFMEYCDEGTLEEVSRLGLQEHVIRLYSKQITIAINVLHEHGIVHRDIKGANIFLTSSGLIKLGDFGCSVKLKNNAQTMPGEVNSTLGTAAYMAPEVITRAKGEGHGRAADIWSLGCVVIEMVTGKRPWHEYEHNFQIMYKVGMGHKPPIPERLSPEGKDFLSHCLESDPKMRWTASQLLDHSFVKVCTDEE
Chain of MAST3 (O60307 whole entry, the tested form may be a part): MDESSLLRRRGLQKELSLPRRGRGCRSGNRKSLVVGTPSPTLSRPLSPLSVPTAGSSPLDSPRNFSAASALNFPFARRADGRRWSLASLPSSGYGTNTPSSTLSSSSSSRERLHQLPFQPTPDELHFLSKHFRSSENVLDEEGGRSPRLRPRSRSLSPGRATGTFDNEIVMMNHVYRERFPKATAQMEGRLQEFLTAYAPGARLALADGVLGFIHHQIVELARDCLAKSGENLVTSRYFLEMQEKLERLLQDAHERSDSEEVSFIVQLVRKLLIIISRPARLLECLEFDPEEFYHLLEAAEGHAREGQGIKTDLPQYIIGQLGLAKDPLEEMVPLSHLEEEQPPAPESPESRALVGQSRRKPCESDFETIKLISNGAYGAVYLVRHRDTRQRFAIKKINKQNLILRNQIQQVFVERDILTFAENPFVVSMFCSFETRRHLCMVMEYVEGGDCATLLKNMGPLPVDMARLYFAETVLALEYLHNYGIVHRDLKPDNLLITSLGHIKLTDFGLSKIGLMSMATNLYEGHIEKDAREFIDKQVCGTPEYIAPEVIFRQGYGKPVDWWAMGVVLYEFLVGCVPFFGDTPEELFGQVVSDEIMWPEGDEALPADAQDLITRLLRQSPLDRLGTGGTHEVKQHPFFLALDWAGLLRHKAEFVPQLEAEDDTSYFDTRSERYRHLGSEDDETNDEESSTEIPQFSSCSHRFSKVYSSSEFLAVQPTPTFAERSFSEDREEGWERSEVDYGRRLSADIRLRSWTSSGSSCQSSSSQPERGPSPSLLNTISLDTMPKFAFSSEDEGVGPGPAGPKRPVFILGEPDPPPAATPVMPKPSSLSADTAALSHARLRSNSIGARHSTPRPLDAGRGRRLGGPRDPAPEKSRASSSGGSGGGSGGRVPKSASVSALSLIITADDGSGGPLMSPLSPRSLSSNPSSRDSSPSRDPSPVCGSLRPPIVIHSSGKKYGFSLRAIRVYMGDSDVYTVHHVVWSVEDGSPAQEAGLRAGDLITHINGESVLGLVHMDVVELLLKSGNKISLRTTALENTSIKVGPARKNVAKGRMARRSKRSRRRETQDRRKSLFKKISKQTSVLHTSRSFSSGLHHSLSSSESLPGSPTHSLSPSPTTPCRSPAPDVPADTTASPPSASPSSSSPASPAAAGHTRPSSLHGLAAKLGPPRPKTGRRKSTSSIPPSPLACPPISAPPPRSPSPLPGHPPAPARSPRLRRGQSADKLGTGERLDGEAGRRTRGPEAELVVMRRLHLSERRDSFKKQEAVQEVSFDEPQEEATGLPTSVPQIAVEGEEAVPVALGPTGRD
Chain of MAP2K6 (P52564 whole entry): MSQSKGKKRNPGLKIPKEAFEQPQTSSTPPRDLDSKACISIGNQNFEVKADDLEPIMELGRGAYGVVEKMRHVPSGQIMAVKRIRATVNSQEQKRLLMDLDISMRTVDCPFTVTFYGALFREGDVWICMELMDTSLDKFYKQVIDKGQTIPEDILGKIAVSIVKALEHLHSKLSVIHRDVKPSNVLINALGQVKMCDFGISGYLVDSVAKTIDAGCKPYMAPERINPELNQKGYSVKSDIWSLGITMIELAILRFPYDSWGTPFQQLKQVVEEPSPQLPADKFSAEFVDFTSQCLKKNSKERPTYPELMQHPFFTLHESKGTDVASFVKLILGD

Compound: Cc1ccc(C(=O)Nc2cccc(C(C)(C)C#N)c2)cc1NC(=O)c1cncc(-c2cccs2)c1 [I-6, N-(5-((3-(2-cyanopropan-2-yl)phenyl)carbamoyl)-2-methylphenyl)-5-(thiophen-2-yl)nicotinamide]
- inhibition at 1 µM [1]: 15.9%
- inhibition at 1 µM [2]: -21.8%
- inhibition of kinase labeling [3]: 11.7%
- inhibition at 1 µM [4]: -19.5%
- inhibition at 1 µM [5]: 4.6%
- inhibition at 1 µM [6]: -9.6%
- inhibition at 1 µM [7]: -4.5%
- inhibition of kinase labeling [8]: −2.5%
- inhibition at 1 µM [9]: 10.8%
- inhibition at 1 µM [10]: 9.8%
- inhibition of kinase labeling [11]: 0.7%
- inhibition of kinase labeling [12]: −4.9%
- inhibition at 1 µM [13]: 9.4%
- inhibition at 1 µM ([14]; Activation Loop, A375 cells): -7.9%
- inhibition at 1 µM ([14]; Lys1, A375 cells): -38.5%
- inhibition at 1 µM [15]: -14.6%
- inhibition at 1 µM [16]: 3.8%
- inhibition at 1 µM [17]: 23.3%
- inhibition at 1 µM [18]: 68.8%
- inhibition at 1 µM [19]: -18.8%
- inhibition at 1 µM [20]: 4.7%
- inhibition at 1 µM [21]: -1.4%
- inhibition at 1 µM [22]: -15.8%
- inhibition at 1 µM [23]: -12.5%
- inhibition of kinase labeling [24]: 17.8%
- inhibition at 1 µM [25]: 6.5%
- inhibition of kinase labeling [26]: >90%
- inhibition at 1 µM [27]: 10.8%
- inhibition at 1 µM [28]: 5.4%
- inhibition at 1 µM [29]: 3.9%
- inhibition at 1 µM [30]: 3.2%
- inhibition at 1 µM [31]: -1.2%
- inhibition at 1 µM [32]: -20.3%
- inhibition at 1 µM [33]: 21.9%
- inhibition at 1 µM [34]: -6.8%
- inhibition at 1 µM [35]: -6.1%
- inhibition at 1 µM ([36]; Activation Loop, A375 cells): 68.5%
- inhibition at 1 µM ([36]; Lys1, A375 cells): 87.6%
- inhibition of kinase labeling [37]: 11.9%
- inhibition at 1 µM [38]: 18.9%
- inhibition at 1 µM [39]: -22.9%
- inhibition at 1 µM [40]: -1.2%
- inhibition at 1 µM [41]: 20.7%
